# According to patent publication US8431565B2 (priority 2007, dated 2013):
# Molecular target: T1, rat CB2 receptor (rCB2) (Rattus norvegicus, UniProt Q9QZN9)
# T1 sequence (Q9QZN9 1-360): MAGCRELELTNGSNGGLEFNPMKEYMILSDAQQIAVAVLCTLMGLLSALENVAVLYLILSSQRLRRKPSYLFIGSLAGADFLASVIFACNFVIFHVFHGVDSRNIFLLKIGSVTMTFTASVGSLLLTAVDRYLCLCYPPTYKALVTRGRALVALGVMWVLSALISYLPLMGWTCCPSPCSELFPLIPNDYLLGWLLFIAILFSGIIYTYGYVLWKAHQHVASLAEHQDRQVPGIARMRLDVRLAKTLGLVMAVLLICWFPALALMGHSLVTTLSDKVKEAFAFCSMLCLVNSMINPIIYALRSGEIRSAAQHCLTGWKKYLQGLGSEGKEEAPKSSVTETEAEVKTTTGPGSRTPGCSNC
row,SMILES,EC50 [µM]
1,"CC(C)CN1CCn2c(-c3ccccc3)nc(C(=O)NCC(C)(C)C)c2C1 [Compound 58, 7-isobutyl-N-neopentyl-3-phenyl-5,6,7,8-tetrahydroimidazo[1,5-a]pyrazine-1-carboxamide]",0.01 to 0.1
2,"CC(C)CN1CCn2c(-c3ccccc3)nc(C(=O)N[C@H](C)C(C)(C)C)c2C1 [Compound 52, (R)-N-(3,3-dimethylbutan-2-yl)-7-isobutyl-3-phenyl-5,6,7,8-tetrahydrimidazo[1,5-a]pyrazine-1-carboxamide]",0.0001 to 0.01
3,"CNC(=O)[C@@H](NC(=O)c1nc(-c2ccc3ccccc3c2)n2c1CN(C)CCC2)C(C)(C)C [Compound 380, (S)-N-(3,3-dimethyl-1-(methylamino)-1-oxobutan-2-yl)-8-methyl-3-(naphthalen-2-yl)-6,7,8,9-tetrahydro-5H-imidazo[1,5-a][1,4]diazepine-1-carboxamide]",0.01 to 0.1
4,"CNC(=O)[C@@H](NC(=O)c1nc(-c2ccc(F)c(C)c2)n2c1CNCC2)C(C)(C)C [Compound 7, (S)-N-(3,3-dimethyl-1-(methylamino)-1-oxobutan-2-yl)-3-(4-fluoro-3-methylphenyl)-5,6,7,8-tetrahydroimidazo[1,5-a]pyrazin-1-carboxamide]",0.01 to 0.1
5,"CC(C)(C)CNC(=O)c1nc(-c2ccccc2)n2c1CN(S(=O)(=O)c1ccccc1)CC2 [Compound 104, N-neopentyl-3-phenyl-7-(phenylsulfonyl)-5,6,7,8-tetrahydroimidazo[1,5-a]pyrazine-1-carboxamide]",0.01 to 0.1
6,"CC(C)CCNC(=O)c1nc(-c2ccc(Cl)cc2)n2c1CN(C(=O)C1CC1)CC2 [Compound 131, 3-(4-chlorophenyl)-7-(cyclopropanecarbonyl)-N-isopentyl-5,6,7,8-tetrahydroimidazo[1,5-a]pyrazine-1-carboxamide]",0.01 to 0.1
7,"CNC(=O)[C@@H](NC(=O)c1nc(-c2ccccc2)n2c1CN(C(=O)C(C)(C)C)CC2)C(C)(C)C [Compound 190, (S)-N-(3,3-dimethyl-1-(methylamino)-1-oxobutan-2-yl)-3-phenyl-7-pivaloyl-5,6,7,8-tetrahydroimidazo[1,5-a]pyrazine-1-carboxamide]",0.01 to 0.1
8,"CC(C)CN1CCn2c(-c3ccccc3)nc(C(=O)NCC3CCOCC3)c2C1 [Compound 167, 7-isobutyl-3-phenyl-N-((tetrahydro-2H-pyran-4-yl)methyl)-5,6,7,8-tetrahydroimidazo[1,5-a]pyrazine-1-carboxamide]",0.01 to 0.1
9,"CC(C)(C)OC(=O)N1CCn2c(-c3ccccc3)nc(C(=O)NC3C4(C)CCC(C4)C3(C)C)c2C1 (stereo not drawn) [Compound 30, tert-butyl 3-phenyl-1-(1,3,3-trimethylbicyclo[2.2.1]heptan-2-ylcarbamoyl)-5,6-dihydroimidazo[1,5-a]pyrazine-7(8H)-carboxylate]",0.01 to 0.1
10,"CCN1CCn2c(-c3ccccc3)nc(C(=O)N[C@H](C(=O)NC)C(C)(C)C)c2C1 [Compound 149, (S)-N-(3,3-dimethyl-1-(methylamino)-1-oxobutan-2-yl)-7-ethyl-3-phenyl-5,6,7,8-tetrahydroimidazo[1,5-a]pyrazine-1-carboxamide]",0.01 to 0.1
11,"CC12CCC(C1)C(C)(C)C2NC(=O)c1nc(-c2ccccc2)n2c1CN(CCO)CC2 (stereo not drawn) [Compound 143, 7-(2-hydroxyethyl)-3-phenyl-N-(1,3,3-trimethylbicyclo[2.2.1]heptan-2-yl)-5,6,7,8-tetrahydroimidazo[1,5-a]pyrazine-1-carboxamide]",0.01 to 0.1
12,"Cc1noc([C@@H](NC(=O)c2nc(-c3ccccc3)n3c2CN(C2CC2)CC3)C(C)(C)C)n1 [Compound 198, (S)-7-cyclopropyl-N-(2,2-dimethyl-1-(3-methyl-1,2,4-oxadiazol-5-yl)propyl)-3-phenyl-5,6,7,8-tetrahydroimidazo[1,5-a]pyrazine-1-carboxamide]",0.0001 to 0.01
13,"Cc1noc([C@@H](NC(=O)c2nc(-c3ccccc3)n3c2CN(C(C)C)CC3)C(C)(C)C)n1 [Compound 89, (S)-N-(2,2-dimethyl-1-(3-methyl-1,2,4-oxadiazol-5-yl)propyl)-7-isopropyl-3-phenyl-5,6,7,8-tetrahydrimidazo[1,5-a]pyrazine-1-carboxamide]",0.0001 to 0.01
14,"CNC(=O)[C@@H](NC(=O)c1nc(-c2ccc(Cl)cc2F)n2c1CN(CC(C)C)CCC2)C(C)(C)C [Compound 322, (S)-3-(4-chloro-2-fluorophenyl)-N-(3,3-dimethyl-1-(methylamino)-1-oxobutan-2-yl)-8-isobutyl-6,7,8,9-tetrahydro-5H-imidazo[1,5-a][1,4]diazepine-1-carboxamide]",0.01 to 0.1
15,"CC(C)CN1CCn2c(-c3ccccc3)nc(C(=O)N[C@H](C(=O)N(C)C)C(C)(C)C)c2C1 [Compound 80, (S)-N-(1-(dimethylamino)-3,3-dimethyl-1-oxobutan-2-yl)-7-isobutyl-3-phenyl-5,6,7,8-tetrahydroimidazo[1,5-a]pyrazine-1-carboxamide]",0.01 to 0.1
16,"Cc1ccc(-c2nc(C(=O)N[C@H](c3nc(C)no3)C(C)(C)C)c3n2CCCNC3)c(F)c1 [Compound 520, (S)-N-(2,2-dimethyl-1-(3-methyl-1,2,4-oxadiazol-5-yl)propyl)-3-(2-fluoro-4-methylphenyl)-6,7,8,9-tetrahydro-5H-imidazo[1,5-a][1,4]diazepine-1-carboxamide]",0.01 to 0.1
17,"CNC(=O)[C@@H](NC(=O)c1nc(-c2ccc(C(C)(C)C)cc2)n2c1CN(C)CCC2)C(C)(C)C [Compound 414, (S)-3-(4-tert-butylphenyl)-N-(3,3-dimethyl-1-(methylamino)-1-oxobutan-2-yl)-8-methyl-6,7,8,9-tetrahydro-5H-imidazo[1,5-a][1,4]diazepine-1-carboxamide]",0.01 to 0.1
18,"CNC(=O)[C@@H](NC(=O)c1nc(-c2ccccc2)n2c1CN(c1cncc(Cl)n1)CC2)C(C)(C)C [Compound 300, (S)-7-(6-chloropyrazin-2-yl)-N-(3,3-dimethyl-1-(methylamino)-1-oxobutan-2-yl)-3-phenyl-5,6,7,8-tetrahydroimidazo[1,5-a]pyrazine-1-carboxamide]",0.01 to 0.1
19,"CNC(=O)[C@@H](NC(=O)c1nc(-c2ccc(C)c(F)c2)n2c1CN(C)CC2)C(C)(C)C [Compound 240, (S)-N-(3,3-dimethyl-1-(methylamino)-1-oxobutan-2-yl)-3-(3-fluoro-4-methylphenyl)-7-methyl-5,6,7,8-tetrahydroimidazo[1,5-a]pyrazine-1-carboxamide]",0.01 to 0.1
20,"COC(=O)[C@@H](NC(=O)c1nc(-c2ccc(C)cc2F)n2c1CN(CC1CC1)CCC2)C(C)(C)C [Compound 470, (S)-methyl 2-(8-(cyclopropylmethyl)-3-(2-fluoro-4-methylphenyl)-6,7,8,9-tetrahydro-5H-imidazo[1,5-a][1,4]diazepine-1-carboxamido)-3,3-dimethylbutanoate]",0.01 to 0.1
21,"CNC(=O)[C@@H](NC(=O)c1nc(-c2cccc(C(F)(F)F)c2)n2c1CN(C)CCC2)C(C)(C)C [Compound 438, (S)-N-(3,3-dimethyl-1-(methylamino)-1-oxobutan-2-yl)-8-methyl-3-(3-(trifluoromethyl)phenyl)-6,7,8,9-tetrahydro-5H-imidazo[1,5-a][1,4]diazepine-1-carboxamide]",0.01 to 0.1
22,"CNC(=O)[C@@H](NC(=O)c1nc(/C=C/Cc2ccccc2)n2c1CN(C)CCC2)C(C)(C)C [Compound 458, (S,E)-N-(3,3-dimethyl-1-(methylamino)-1-oxobutan-2-yl)-8-methyl-3-(3-phenylprop-1-enyl)-6,7,8,9-tetrahydro-5H-imidazo[1,5-a][1,4]diazepine-1-carboxamide]",0.01 to 0.1

# Molecular target: human CB1 receptor (hCB1) (Homo sapiens, UniProt P21554)
# Sequence (P21554 whole entry): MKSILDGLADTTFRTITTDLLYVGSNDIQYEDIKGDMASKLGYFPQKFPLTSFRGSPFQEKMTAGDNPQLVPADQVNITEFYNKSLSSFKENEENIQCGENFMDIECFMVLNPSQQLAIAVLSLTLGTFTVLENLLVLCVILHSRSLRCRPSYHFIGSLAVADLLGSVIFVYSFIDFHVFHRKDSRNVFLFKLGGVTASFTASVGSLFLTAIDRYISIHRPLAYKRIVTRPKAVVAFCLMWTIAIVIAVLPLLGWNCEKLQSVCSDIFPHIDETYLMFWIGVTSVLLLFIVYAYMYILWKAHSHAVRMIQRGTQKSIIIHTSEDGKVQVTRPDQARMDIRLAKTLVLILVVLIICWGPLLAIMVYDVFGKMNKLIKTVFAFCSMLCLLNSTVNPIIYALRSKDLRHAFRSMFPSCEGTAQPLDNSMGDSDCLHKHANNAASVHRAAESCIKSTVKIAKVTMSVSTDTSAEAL
# Format: cell-based
row,SMILES,EC50 [µM]
1,"CNC(=O)[C@@H](NC(=O)c1nc(-c2ccc(OC(C)C)cc2)n2c1CN(C)CCC2)C(C)(C)C [Compound 649, (S)-N-(3,3-dimethyl-1-(methylamino)-1-oxobutan-2-yl)-3-(4-isopropoxyphenyl)-8-methyl-6,7,8,9-tetrahydro-5H-imidazo[1,5-a][1,4]diazepine-1-carboxamide]",> 10
2,"CN1CCCn2c(-c3cc(Cl)ccc3F)nc(C(=O)N[C@H](CNS(C)(=O)=O)C(C)(C)C)c2C1 [Compound 771, (S)-3-(5-chloro-2-fluorophenyl)-N-(3,3-dimethyl-1-(methylsulfonamido)butan-2-yl)-8-methyl-6,7,8,9-tetrahydro-5H-imidazo[1,5-a][1,4]diazepine-1-carboxamide]",> 10
3,"CNC(=O)[C@@H](NC(=O)c1nc(-c2ccnc(C)c2)n2c1CN(C)CCC2)C(C)(C)C [Compound 638, (S)-N-(3,3-dimethyl-1-(methylamino)-1-oxobutan-2-yl)-8-methyl-3-(2-methylpyridin-4-yl)-6,7,8,9-tetrahydro-5H-imidazo[1,5-a][1,4]diazepine-1-carboxamide]",> 10
4,"CNC(=O)[C@@H](NC(=O)c1nc(-c2cc(F)c(F)cc2F)n2c1CN(C(C)=O)CCC2)C(C)(C)C [Compound 818, (S)-8-acetyl-N-(3,3-dimethyl-1-(methylamino)-1-oxobutan-2-yl)-3-(2,4,5-trifluorophenyl)-6,7,8,9-tetrahydro-5H-imidazo[1,4]diazepine-1-carboxamide]",> 10
5,"CN1CCCn2c(-c3cc(F)c(F)cc3F)nc(C(=O)NCC3CCOCC3)c2C1 [Compound 764, 8-methyl-N-((tetrahydro-2H-pyran-4-yl)methyl)-3-(2,4,5-trifluorophenyl)-6,7,8,9-tetrahydro-5H-imidazo[1,5-a][1,4]diazepine-1-carboxamide]",> 10
